{
  "source": "patent US20250127778A1",
  "about": "“CANCER IMMUNOTHERAPY COMPOSITION CONTAINING INTERACTION INHIBITOR OF STING AND TRIM29 AS ACTIVE INGREDIENT” (SPARK BIOPHARMA, INC, priority 2021, published 2025)",
  "key": {"[1]": {"system": "bone-marrow derived dendritic cells (BMDC) and OT-1 T cells", "assay": "BMDC cross-antigen presentation with killed MC38 or MC38-OVA tumor cells", "assay_type": "cell-based, mouse", "conditions": "with cGAMP, FIG. 19", "protocol": "In the same manner as <Experimental Example 7> above, mouse bone marrow-derived cells were obtained and differentiated. On the sixth day, 2×10^6 dendritic cells (BMDC) were co-cultured with 2×10^6 of MC38 or MC38-OVA tumor cells frozen-thawed three times and treated with cGAMP and/or the compound of Formula 1 in various concentrations. The cells were cultured at 37° C. in a 5% CO2 incubator for 24 hours, and then flow cytometry of dendritic cell activation markers (CD80, CD86, MHC II) was performed. Then, 5×10^4 cells were incubated with 2×10^5 CFSE-labeled OT-1 T cells (OVA-specific CD8^+ T cells) to observe OT-1 T cell proliferation."}, "CT26 tumor": {"system": "CT26 tumor", "assay": "Tumor growth in CT26 in vivo syngeneic mouse model", "conditions": "CT26, intratumoral, FIG. 23", "protocol": "(§1) 2×10^5 CT26 cell lines were prepared in 50 μL culture medium and subcutaneously injected. […] The cGAMP solution was manufactured with a final composition of PEG400:distilled water=40:60, and 20 μL was injected each time. The solution of the compound of Formula 1 was manufactured with the composition of DMSO:PEG400:distilled water=2:40:58, and 20 μL was injected each time. The cGAMP solution was injected once every two days, four times in total, and the solution of the compound of Formula 1 was injected once every four days, two times in total, starting with the second administration of cGAMP. The size of the tumor was measured by using calipers every two days, and the volume thereof was calculated as (length×width×height/2). The body weight of the mice was also measured every two days."}, "STING": {"target": "T1, STING (Mus musculus, UniProt Q3TBT3)", "T1 sequence (Q3TBT3 1-378)": "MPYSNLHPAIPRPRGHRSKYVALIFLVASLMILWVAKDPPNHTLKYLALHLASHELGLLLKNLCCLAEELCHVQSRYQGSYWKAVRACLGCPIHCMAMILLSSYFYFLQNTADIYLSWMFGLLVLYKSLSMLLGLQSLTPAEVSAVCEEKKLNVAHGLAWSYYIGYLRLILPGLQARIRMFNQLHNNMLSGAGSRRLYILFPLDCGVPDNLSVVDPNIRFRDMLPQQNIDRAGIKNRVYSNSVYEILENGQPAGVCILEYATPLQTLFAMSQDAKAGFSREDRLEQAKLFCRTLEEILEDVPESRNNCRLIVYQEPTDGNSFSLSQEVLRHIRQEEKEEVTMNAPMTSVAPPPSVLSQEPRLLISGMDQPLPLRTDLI", "assay": "Western blotting of intracellular STING in Raw264.7 cells", "assay_type": "cell-based", "set-up": "endogenous in cells; host or cells: Raw264.7", "conditions": "concentration-dependent, FIG. 16"}, "STING mRNA": {"system": "STING mRNA", "assay": "qRT-PCR of STING mRNA in Raw264.7 cells", "assay_type": "cell-based, mouse", "conditions": "FIG. 17"}, "[2]": {"assay": "Body weight and toxicity signals in CT26 syngeneic mouse model", "assay_type": "in vivo", "conditions": "treated individually or in combination, FIG. 24", "protocol": "as §1"}, "[3]": {"conditions": "combination with cGAMP compared with the control group"}},
  "data": [
    {"compound": "COc1ccc(CC2=CN(c3ccc(C(=O)NC[C@H]4CCCO4)cc3[N+](=O)[O-])[C@H](C(C)C)C(=O)N2Cc2ccc(O)cc2)cc1", "note": "[Formula 1, 4-((R)-4-(4-hydroxybenzyl)-2-isopropyl-5-(4-methoxybenzyl)-3-oxo-3,4-dihydropyrazin-1 (2H)-yl)-3-nitro-N-(((R)-tetrahydrofuran-2-yl)methyl)benzamide]", "values": [
      {"measurement": "OT-1 T cell proliferation (cross-antigen presentation)", "setting": "[1]; MC38 control group", "result": "such an effect did not occur at all"},
      {"measurement": "OT-1 T cell proliferation (cross-antigen presentation)", "setting": "[1]; killed MC38-OVA cells, concentration-dependent", "result": "promoted cell proliferation"},
      {"measurement": "tumor growth", "setting": "CT26 tumor; combination with cGAMP compared with single treatment with cGAMP", "result": "inhibited in a concentration-dependent manner"},
      {"measurement": "tumor growth", "setting": "CT26 tumor; [3]", "result": "inhibited"},
      {"measurement": "weight of the tumor extracted on the final day", "setting": "CT26 tumor; [3]", "result": "reduced"},
      {"measurement": "intracellular amount of STING", "setting": "STING", "result": "increased"},
      {"measurement": "relation of STING increase to RNA transcription (STING mRNA)", "setting": "STING mRNA", "result": "not related to RNA transcription"},
      {"measurement": "body weight change or signal of toxicity", "setting": "[2]", "result": "significant change in body weight or signal of toxicity was not observed"}
    ]}
  ]
}
